Measurements: patent publication US20070207980A1, “Chp-gemcitabine Combination Agents And Their Use As Anti-Tumor Agents” (priority 2003, published 2007)

Key:
BxPC3 [1] = experiment: Effect of combined agents releasing gemcitabine first (Table 2); conditions: no gemcitabine first
Experimental: (§2) The chemosensitivity assay was performed in a 96-well microtiter plate with 10^4 cells per well and 100 μl of medium, and the components to be tested were supplied in a volume of 100 μl. All components were diluted on the microtiter plates, and the plates were incubated under cell culture conditions for 4 days, except for those tests wherein the ratio between application time and reaction was to be determined. The viability of the cells, including the mitochondrial activity, i.e., the ratio of cell survival rate and cell number, was determined using an MTT assay.
(§3) Combined agents of the invention sequentially releasing CHP and gemcitabine were also tested. […] Agents were used in cell cultures, which agents initially release CHP, followed by gemcitabine after 24 hours and 48 hours, respectively. […] Combined agents were used which released 1 μg/ml gemcitabine, followed by CHP after 12, 24 and 48 hours, respectively.

PANC-1 cells = experiment: as above; conditions: no gemcitabine first
Experimental: as §2, §3

MCF-7 = experiment: Cell line screening of CHP anti-proliferation activity (chemosensitivity MTT assay); type: cell-based; conditions: Breast tissue
Experimental: (§1) Unless otherwise stated, cell lines from the American Type Culture Collection (ATCC, Rockville, Md.) were used and cultured to confluence in a monolayer in RPMI-1640 bicarbonate medium (Seromed, Berlin, Germany) in an incubator ([…], 37° C.). The cells were examined for mycoplasma contaminations. The medium included 10% heat-inactivated fetal calf serum (Seromed) and 4 mM glutamine. The cells were cultured and passaged according to standard procedures (0.03% trypsin with 0.02% EDTA, 3 times a week) . The cell number was determined using a TOA Sysmex micro-cell counter (TOA, Tokyo, Japan).

ASPC1 = experiment: as above; type: cell-based; conditions: Pancreas cell lines
Experimental: as §1

MIAPaCa2 = experiment: as above; type: cell-based; conditions: Pancreas cell lines
Experimental: as §1

Me128 = experiment: as above; type: cell-based; conditions: Melanoma
Experimental: as §1

T47D = experiment: as above; type: cell-based; conditions: Breast tissue
Experimental: as §1

WI38 = experiment: as above; type: cell-based; conditions: Fibroblasts
Experimental: as §1

MDA-MBA231 = experiment: as above; type: cell-based; conditions: Breast tissue
Experimental: as §1

HOS = experiment: as above; type: cell-based; conditions: Osteosarcoma tissue
Experimental: as §1

A518 = experiment: as above; type: cell-based; conditions: Melanoma
Experimental: as §1

K562 = experiment: as above; type: cell-based; conditions: Leukemia cells
Experimental: as §1

BxPC3 [2] = experiment: as above; type: cell-based; conditions: Pancreas cell lines
Experimental: as §1

Calc22 = experiment: as above; type: cell-based; conditions: Osteoblasts
Experimental: as §1

PANC1 = experiment: as above; type: cell-based; conditions: Pancreas cell lines
Experimental: as §1

Colo205 = experiment: as above; type: cell-based; conditions: Colon cell lines
Experimental: as §1

HCT-15 = experiment: as above; type: cell-based; conditions: Colon cell lines
Experimental: as §1

JVSO = experiment: as above; type: cell-based; conditions: Melanoma
Experimental: as §1

SW480 (Ccl228) = experiment: as above; type: cell-based; conditions: Colon cell lines
Experimental: as §1

Fib2 (PPH) = experiment: as above; type: cell-based; conditions: Fibroblasts
Experimental: as §1

Capanl = experiment: as above; type: cell-based; conditions: Pancreas cell lines
Experimental: as §1

CR01 = experiment: as above; type: cell-based; conditions: Carcinoids
Experimental: as §1

ACHN = experiment: as above; type: cell-based; conditions: Renal cell lines
Experimental: as §1

SW620(Ccl227) = experiment: as above; type: cell-based; conditions: Colon cell lines
Experimental: as §1

Colo320DM = experiment: as above; type: cell-based; conditions: Colon cell lines
Experimental: as §1

B607 = experiment: as above; type: cell-based; conditions: Melanoma
Experimental: as §1

Fib3 (PPH) = experiment: as above; type: cell-based; conditions: Fibroblasts
Experimental: as §1

HT29 = experiment: as above; type: cell-based; conditions: Colon cell lines
Experimental: as §1

PC3 = experiment: as above; type: cell-based; conditions: Prostate tissue
Experimental: as §1

A498 = experiment: as above; type: cell-based; conditions: Renal cell lines
Experimental: as §1

DLD1 = experiment: as above; type: cell-based; conditions: Colon cell lines
Experimental: as §1

CR02 = experiment: as above; type: cell-based; conditions: Carcinoids
Experimental: as §1

O=C(O)[C@@H]1C[C@@H](O)CN1 (relative stereo) [CHP, cis-hydroxyproline]
BxPC3 control (BxPC3 [1]; CHP 6.1 μg/ml): 103.5 ± 2.6
BxPC3 control (BxPC3 [1]; CHP 12.5 μg/ml): 102.6 ± 1.7
BxPC3 control (BxPC3 [1]; CHP 25 μg/ml): 99.9 ± 3.1
BxPC3 control (BxPC3 [1]; CHP 50 μg/ml): 99.8 ± 4.3
BxPC3 control (BxPC3 [1]; CHP 100 μg/ml): 105.2 ± 5.4
PANC-1 control (PANC-1 cells; CHP 3 μg/ml): 98.8 ± 4.0
PANC-1 control (PANC-1 cells; CHP 6.1 μg/ml): 96.0 ± 6.0
PANC-1 control (PANC-1 cells; CHP 12.5 μg/ml): 90.8 ± 4.1
PANC-1 control (PANC-1 cells; CHP 25 μg/ml): 95.9 ± 5.1
PANC-1 control (PANC-1 cells; CHP 50 μg/ml): 94.8 ± 6.4
PANC-1 control (PANC-1 cells; CHP 100 μg/ml): 95.1 ± 2.3
Reaction (CHP anti-proliferation activity) (MCF-7): −43%
Reaction (CHP anti-proliferation activity) (ASPC1): −42%
Reaction (CHP anti-proliferation activity) (MIAPaCa2): −45.7%
Reaction (CHP anti-proliferation activity) (Me128): resistant
Reaction (CHP anti-proliferation activity) (T47D): −34%
Reaction (CHP anti-proliferation activity) (WI38): resistant
Reaction (CHP anti-proliferation activity) (MDA-MBA231): resistant
Reaction (CHP anti-proliferation activity) (HOS): −68%
Reaction (CHP anti-proliferation activity) (A518): resistant
Reaction (CHP anti-proliferation activity) (K562): −11%
Reaction (CHP anti-proliferation activity) (BxPC3 [2]): −41%
Reaction (CHP anti-proliferation activity) (Calc22): +8%
Reaction (CHP anti-proliferation activity) (PANC1): −54%
Reaction (CHP anti-proliferation activity) (Colo205): −66%
Reaction (CHP anti-proliferation activity) (HCT-15): −10%
Reaction (CHP anti-proliferation activity) (JVSO): −15%
Reaction (CHP anti-proliferation activity) (SW480 (Ccl228)): −58%
Reaction (CHP anti-proliferation activity) (Fib2 (PPH)): resistant
Reaction (CHP anti-proliferation activity) (Capanl): −66%
Reaction (CHP anti-proliferation activity) (CR01): −35%
Reaction (CHP anti-proliferation activity) (ACHN): resistant
Reaction (CHP anti-proliferation activity) (SW620(Ccl227)): −66.4%
Reaction (CHP anti-proliferation activity) (Colo320DM): −11%
Reaction (CHP anti-proliferation activity) (B607): −12%
Reaction (CHP anti-proliferation activity) (Fib3 (PPH)): −14%
Reaction (CHP anti-proliferation activity) (HT29): −48%
Reaction (CHP anti-proliferation activity) (PC3): resistant
Reaction (CHP anti-proliferation activity) (A498): −6%
Reaction (CHP anti-proliferation activity) (DLD1): −19.8%
Reaction (CHP anti-proliferation activity) (CR02): −13%
